Data: patent publication US20230165865A1, “HETEROARYLDIHYDROPYRIMIDINE DERIVATIVES AND METHODS OF TREATING HEPATITIS B INFECTIONS” (Janssen Pharmaceutica NV, priority 2018, published 2023)
Like-named read-outs stand apart in the source and are kept apart here.

Experiments:
CYP3A4 = assay: In vitro assessment of CYP3A4 induction in cryopreserved human hepatocytes (mRNA level); format: in vitro ADME
Procedure: Preparation and Plating of Human Hepatocytes • 1. The cryopreserved human hepatocytes were thawed in 37° C. water bath and diluted by plating medium to a seeding density of 0.55×10^6 cells/mL. • 2. Transfer 100 μL to each well of collagen I coated 96-well plate. Place plate(s) in incubator and incubate at 37° C. for 4-6 hours. • 3. After incubation, observe cell morphology, agitate plate(s) to loosen debris, and replace medium. Place plate in incubator and incubate for 18 hours. Incubation with Test Compound(s) • 1. Prepare dilute test compound and positive control inducers with 37° C. prepared incubation medium to respective working concentrations (Table 11). Final concentration of DMSO in the treatment group will be 0.1%. Prepare 25 mM chlorpromazine in DMSO and dilute 1000-fold with incubation medium as a cytotoxicity control. • 2. Remove the Hepatocyte plate from the incubator. Observe cell morphology. Replace the medium in the appropriate wells with 125 μL of the toxicity controls, DMSO controls, inducers, or test article solutions, each in triplicate. • 3. After 24 hours and 48 hours, remove the Hepatocyte plate from the incubator and observe cell morphology. Renew the medium with test articles that freshly diluted from DMSO stocks. Return plate to the incubator. 4. mRNA Preparation and RT-PCR • 1. mRNA was prepared and measured using the Cells-to-Ct kit. Add DNase to Lysis solution. • 2. 15 μL of sample lysate was added to 35 µL of Reverse Transcription Master Mix (containing 2×RT Buffer, 20×RT Enzyme Mix and Nuclease-free Water) for a final 50 μL reaction volume. • 3. Separate PCR cocktails were prepared for CYP3A4; containing the CYP specific probe set and that of ACTB as the endogenous control gene. […] Reactions were analyzed on an Applied Biosystems Real Time PCR system (AB 7500). […] For mRNA level determination, the mRNA content in each well is expressed as 2^Ct(ACTB)-Ct(CYP). Fold of induction=mRNA(induced)/mRNA(vehicle) 3) The percent adjusted positive control is determined by: % of positive control=[(fold induction of test article)/(fold induction of positive control)]*100

[1] = Pharmacokinetic and tissue distribution study via intravenous and oral administration in male C57BL/6 mice; format: in vivo; details: for Kp / clearance / Cmax: male, C57BL/6, mouse; for Kp: liver and plasma, po; for Kp / Cmax / Liver AUCinf/Dose / Liver Cmax/Dose / PO AUCinf/Dose: PO; for clearance / IV AUCinf/Dose: IV, nominal 2 mg/kg; for clearance: read-out: IV Cl; for Cmax: dose per compound in table (5.28-9.95 mg/kg); for F: PO vs IV
Procedure: Male C57BL/6 mice with a weight range of 20-25 g (Hua Fu Kang, China) were used. Animals were fasted overnight and free access to food 4 hours after dosing.
Test compound (correction factor: 1.00) was dissolved in a 20% hydroxypropyl-β-cyclodextrin (HP-β-CD) at a final concentration of 1 mg/ml for the intravenous (IV) formulation and at final concentrations of 0.5 mg/ml for the oral (PO) formulation. The intravenous formulation was dosed at 2 ml/kg to obtain a dose of 2 mg/kg. The oral formulations were dosed at 10 ml/kg to obtain final doses of 5 mg/kg.
Blood samples were taken at 7 and 20 min, 1, 2, 4, 8 and 24 h after intravenous dose administration. Blood and liver samples were taken at 30 min, 1, 2, 4, 8, 12 and 24 h after oral dose administration.
Approximately 0.020 mL blood will be collected into BD blood collection tubes containing K3-EDTA at each time point. Samples were placed immediately on melting ice and plasma was obtained following centrifugation at 4° C. for 5 minutes at approximately 4000×g. Plasma samples were adjusted to pH 3-4 by phosphoric acid and stored at −75±15° C. prior to analysis. The whole process was completed within 1 hour.
Liver samples were collected at adopted time point, and the vial containing the tissues sample was snap-frozen in liquid nitrogen right away and kept at −75±15° C. prior to analysis. All liver samples were weighed and homogenized with phosphoric acid solution (pH to 3-4) by liver weight (g) to phosphoric acid solution volume (mL) ratio 1:4 before analysis.
Plasma and liver samples were analyzed using LC-MS/MS methods. The lower limit of quantification (LLOQ) for plasma was 1.0 ng/ml and for liver was 2.5 ng/g. A non-compartmental analysis using the “Linear up log down” rule was used for all data. A limited pharmacokinetic analysis was performed using Phoenix™ Professional (Version 6.1).

HBV = assay: Anti-viral assay in HepG2.2.15 cells: anti-HBV activity, HBV DNA in culture medium by qPCR; format: cell-based; details: HepG2.2.15 cells, 6 days treatment, HBV DNA by qPCR; read-out: EC50
Procedure, shortened: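 Cells in 2% FBS medium treated 6 days, compound and medium refreshed at day 3; 8-point 1:3 dilutions in triplicate, top 10 or 1 uM (antiviral) and 100 uM (cytotoxicity). Extracellular viral DNA quantified by qPCR, giving EC50 and CC50.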

[2] = mice, read-out: AUCInf Ratio (Liver/Plasma)
[3] = mice, read-out: Cmax Ratio (Liver/Plasma)

| SMILES | mRNA Percentage of positive control at 10 uM (CYP3A4; CYP3A4 mRNA, donor 1, 10 μM, positive control rifampicin) [%] | mRNA Fold induction (Mean ± SD) (CYP3A4; CYP3A4 mRNA, donor 1, 10 μM, vs vehicle) | Kp [1, 2] | Kp [1, 3] | clearance ([1]; mice plasma) [mL/min/kg] | Cmax ([1]; mice plasma) [ng/mL] | Liver AUCinf/Dose ([1]; mice liver) [ng·kg·h/g/mg] | Liver Cmax/Dose ([1]; mice liver) [kg·ng/mg/mL] | IV AUCinf/Dose ([1]; mice plasma) [ng·kg·h/mg/mL] | PO AUCinf/Dose ([1]; mice plasma) [ng·kg·h/mg/mL] | F ([1]; mice) [%] | EC50 (HBV) [nM] | CYP induction effect, in words (CYP3A4; CYP3A4, comparing with reference 2) | dose-normalized Cmax and dose-normalized AUCinf in liver, in words ([1]; mice liver, comparing with reference 1 and reference 2) | clearance, in words ([1]; mice plasma, comparing with reference 1 and reference 2) | bioavailability in plasma, in words ([1]; mice, comparing with reference 1 and reference 2) |
| --- | --- | --- | --- | --- | --- | --- | --- | --- | --- | --- | --- | --- | --- | --- | --- | --- |
| CCOC(=O)C1=C(CN2CCN3C(=O)N(CC(C)(C)C(=O)O)C[C@@H]3C2)NC(c2nccs2)=N[C@H]1c1cccc(F)c1C [Reference 2, reference compound] | 20.50 | 5.05 ± 0.61 | 15.9 | 12.2 | 49.1 | 733 | 2894 | 1676 | 345.2 | 181.5 | 52.7 | – | – | – | – | – |
| CCOC(=O)C1=C(CN2CCN3C(=S)N(CC(C)(C)C(=O)O)CC3C2)NC(c2nccs2)=N[C@H]1c1cccc(F)c1C (single isomer, unassigned) [Compound 1A] | – | – | 17.5 | 14 | 16.6 | 2350 | 13733 | 6225 | 1078.3 | 784.8 | 72.9 | 6.3 | no CYP induction effect | far increased | far slower clearance | increased bioavailability |
